We go through six compounds from ChEMBL document CHEMBL1152474, “Synthesis and investigation of anti-inflammatory activity and gastric ulcerogenicity of novel nitric oxide-donating pyrazoline derivatives” (Eur J Med Chem, 2009).

Each structure is given as a SMILES string.

Data set [1] is described as follows: Induction of NO release per mol of compound in phosphate buffer at pH 7.4 at 100 uM after 1 hr by Griess assay. Conditions: pH 7.4, 1 h; call rule not given here. The format is physicochemical.
Data set [2] in a line: Induction of NO release per mol of compound in phosphate buffer at pH 7.4 at 100 uM after 2 hrs by Griess assay. Format: physicochemical. The following applies: pH 7.4, 2 h. Background: The Griess reaction detects nitrite, a stable product of nitric oxide.
Data set [3] in a line: Induction of NO release per mol of compound in phosphate buffer at pH 7.4 at 100 uM after 3 hrs by Griess assay. Conditions: pH 7.4, 3 h. The format is physicochemical.
Data set [4] can be described thus: Induction of NO release per mol of compound in phosphate buffer at pH 7.4 at 100 uM after 4 hrs by Griess assay. The format is physicochemical. Conditions: pH 7.4, 4 h.
The nature of data set [5]: Induction of NO release per mol of compound in phosphate buffer at pH 7.4 at 100 uM after 5 hrs by Griess assay. Format: physicochemical. Conditions: pH 7.4, 5 h.
A short description of data set [6]: Induction of NO release per mol of compound in phosphate buffer at pH 7.4 at 100 uM after 6 hrs by Griess assay. Format: physicochemical. The following applies: pH 7.4, 6 h.
The subject of data set [7] is Rattus norvegicus. Nature of the data set: Antiinflammatory activity in albino rat assessed as inhibition of carrageenan-induced paw edema at 100 mg/kg, po treated for 30 mins measured after 1 hr of carrageenan challenge. The format is functional.
The subject of data set [8] is Rattus norvegicus. Nature of the data set: Antiinflammatory activity in albino rat assessed as inhibition of carrageenan-induced paw edema at 100 mg/kg, po treated for 30 mins measured after 2 hrs of carrageenan challenge. The format is functional. On the technique in general: The carrageenan paw model is a standard test of acute inflammation.
Data set [9] relates to Rattus norvegicus. As to the kind of experiment: Antiinflammatory activity in albino rat assessed as inhibition of carrageenan-induced paw edema at 100 mg/kg, po treated for 30 mins measured after 3 hrs of carrageenan challenge. The format is functional.
Data set [10] relates to Rattus norvegicus. As to the kind of experiment: Gastrotoxicity in albino rat assessed as ulcer index at 100 mg/kg, po after 5 hrs. The format is toxicity, organism-based. The arrangement: dose 100 mg/kg, route oral. The following applies: in vivo.
The nature of data set [11]: Induction of NO release in phosphate buffer at pH 1 at 100 uM by Griess assay. Format: physicochemical. Conditions: pH 1, 100 µM.
Data set [12] concerns Rattus norvegicus. As to the kind of experiment: Reduction in 1-(2-Bromoacetyl)-4,5-dihydro-5-(2,4-dimethoxyphenyl)-3-(3,4-dimethoxyphenyl)-1H-pyrazole-induced ulcer in albino rat at 100 mg/kg, po after 5 hrs. The format is functional. Further details: scale not given: the % may be the effect or the level left.
Data set [13] relates to Rattus norvegicus. As to the kind of experiment: Reduction in 4,5-Dihydro-5-(2,4-dimethoxyphenyl)-3-(3,4-dimethoxyphenyl)-1H-pyrazole-induced ulcer in albino rat at 100 mg/kg, po after 5 hrs. Format: functional. Further details: scale not given: the % may be the effect or the level left.
The test system of data set [14] is Rattus norvegicus. As to the kind of experiment: Reduction in 5-(2-furyl)-4,5-dihydro-3-(3,4-dimethoxyphenyl)-1H-pyrazole-induced ulcer in albino rat at 100 mg/kg, po after 5 hrs. Format: functional. The arrangement: scale not given: the % may be the effect or the level left.
In data set [15] the test system is Rattus norvegicus. Nature of the data set: Reduction in 1-(2-Bromoacetyl)-5-(2-furyl)-4,5-dihydro-3-(3,4-dimethoxyphenyl)-1H-pyrazole-induced ulcer in albino rat at 100 mg/kg, po after 5 hrs. Further details: scale not given: the % may be the effect or the level left. The format is functional.

In the case of `COc1ccc(C2=NN(C(=O)CO[N+](=O)[O-])C(c3c(Cl)cccc3Cl)C2)cc1OC` (centres undefined), the NO release in data set [1] came out at 0.147 mol/mol; in data set [2], 0.395 mol/mol; in [3] it was 0.516 mol/mol; in [4] it was 0.555 mol/mol; in data set [5] it was 0.738 mol/mol; in [6] it was 0.625 mol/mol. Also, the results for the inhibition in vivo at 100 mg/kg with Rattus norvegicus [7], with Rattus norvegicus [8] and in the data set on Rattus norvegicus [9] were 40%, 49% and 58%, respectively. For the same compound, the UI in the data set with Rattus norvegicus [10] is 4. Also, the Activity entry in [11] is “Not Active”.

Turning to `COc1ccc(C2CC(c3ccc(OC)c(OC)c3)=NN2C(=O)CNc2ccc(/C(C)=N/O)cc2)c(OC)c1` (centres undefined), the Activity in the data set with Rattus norvegicus [12] is 93%; with Rattus norvegicus [13], 71%; in data set [11], “Not Active”. Also, the NO release turned out to be 0.137 mol/mol in [1]; 0.114 mol/mol in data set [2]; 0.148 mol/mol in [3]; 0.194 mol/mol in data set [4]; 0.302 mol/mol in data set [5]; 0.268 mol/mol in data set [6]. Besides, the inhibition in vivo – broadly, the relative decrease from the control value, in per cent – at 100 mg/kg with Rattus norvegicus [7] is 27%; in the data set on Rattus norvegicus [8] it was 44%; with Rattus norvegicus [9] it was 46%. The UI with Rattus norvegicus [10] is on record as 2.

In the case of `COc1ccc(C2CC(c3ccc(OC)c(OC)c3)=NN2C(=O)CO[N+](=O)[O-])c(OC)c1` (centres undefined), the values for the Activity (in the data set with Rattus norvegicus [12]; in the data set on Rattus norvegicus [13]; in data set [11]) were 83%, 28% and “Not Active”, respectively. For the same compound, the NO release in data set [1] came to 0.329 mol/mol; in data set [2], 0.391 mol/mol; in data set [3], 0.433 mol/mol; in data set [4] it was 0.523 mol/mol; in data set [5], 0.78 mol/mol; in [6] it was 0.588 mol/mol. Besides, the values for the inhibition in vivo at 100 mg/kg in the data set on Rattus norvegicus [7], in the data set with Rattus norvegicus [8] and with Rattus norvegicus [9] were 38%, 48% and 58%, respectively. Besides, the UI in the data set with Rattus norvegicus [10] came to 5.

For `COc1ccc(C2=NN(C(=O)CNc3ccc(/C(C)=N/O)cc3)C(c3ccco3)C2)cc1OC` (centres undefined), the NO release in [1] stood at 0.118 mol/mol; in data set [2] it was 0.128 mol/mol; in data set [3], 0.138 mol/mol; in data set [4] it was 0.167 mol/mol; in data set [5], 0.277 mol/mol; in [6], 0.267 mol/mol. Further, the inhibition in vivo at 100 mg/kg was 38% in the data set on Rattus norvegicus [7], 46% in the data set on Rattus norvegicus [8] and 46% in the data set on Rattus norvegicus [9]. In addition, the UI with Rattus norvegicus [10] was determined as 0. Also, the Activity entry in [11] is “Not Active”; in the data set on Rattus norvegicus [14], 96%; with Rattus norvegicus [15] it was 92%.

Consider `COc1ccc(C2=NN(C(=O)CO[N+](=O)[O-])C(c3ccco3)C2)cc1OC` (centres undefined), for which the NO release in data set [1] was 0.126 mol/mol; in data set [2] it was 0.211 mol/mol; in [3], 0.281 mol/mol; in data set [4], 0.483 mol/mol; in data set [5], 0.614 mol/mol; in data set [6], 0.535 mol/mol. Besides, the inhibition in vivo at 100 mg/kg is 32% with Rattus norvegicus [7], 37% in the data set on Rattus norvegicus [8] and 43% in the data set on Rattus norvegicus [9]. In addition, the UI in the data set with Rattus norvegicus [10] is 2. In addition, the Activity entry in [11] is “Not Active”; with Rattus norvegicus [14], 92%; in the data set with Rattus norvegicus [15], 84%.

On to `COc1ccc(C2=NN(C(=O)C(C)O[N+](=O)[O-])C(c3c(Cl)cccc3Cl)C2)cc1OC` (centres undefined), for which the NO release in data set [1] worked out at 0.123 mol/mol; in data set [2], 0.19 mol/mol; in data set [3], 0.501 mol/mol; in [4] it was 0.255 mol/mol; in data set [5], 0.145 mol/mol; in data set [6] it was 0.114 mol/mol. The figures for the inhibition in vivo at 100 mg/kg in the data set on Rattus norvegicus [7], in the data set on Rattus norvegicus [8] and with Rattus norvegicus [9] were 47%, 53% and 55%, respectively. In addition, the UI in the data set on Rattus norvegicus [10] is listed as 7. Besides, in data set [11], the Activity result was “Not Active”.
